Assay results reported in patent US4336253A, “Cephalosporin antibiotics” (Eli Lilly and Company, priority 1981, dated 1982).

Assay: physchem
[1] = 66% dmf, first titratable group
[2] = 66% dmf, second titratable group

Row | SMILES | pKa (water, first titratable group) | pKa (water, second titratable group) | pKa [1] | pKa [2]
1 | CN(O)C(=O)c1ccncc1 [N-hydroxy-N-methyl 4-pyridinecarboxamide] | 3.55 | 7.9 |  | 
2 | O=C(Cc1cccnc1)NO [N-hydroxy 3-pyridineacetamide] | 4.6 | 9.09 | 3.68 | 11.5
3 | O=C(Cc1ccccn1)NO [N-hydroxy-2-pyridineacetamide] | 4.05 | 9.2 | ~3.4 | 11.7
